Columns and labels:
Experiment in all cases: relative viability (nuclei count vs DMSO), 5 days (fraction); higher = more cells survive
[1] = compound: C1=CC=C2C(=C1)C=CC(=C2SSC3=C(C=CC4=CC=CC=C43)O)O [IPA-3] + CC(=O)c1c(C)c2cnc(Nc3ccc(N4CCNCC4)cn3)nc2n(C2CCCC2)c1=O [Palbociclib] (partner 0.5 µM)
In short: (§1)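 Medians of duplicate plates are given as relative viability. That measure is the nuclei count in treated wells divided by the count in vehicle wells. Counts were taken on 4× images of lung cancer cell lines in 1536-well plates, 5 days after pin-tool dosing the day after seeding with one drug alone or a fixed anchor-drug dose plus five library-drug doses (not always all listed) in √10 steps.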

[2] = compound: C1=CC=C2C(=C1)C=CC(=C2SSC3=C(C=CC4=CC=CC=C43)O)O [IPA-3] + Cc1nc(Nc2ncc(C(=O)Nc3c(C)cccc3Cl)s2)cc(N2CCN(CCO)CC2)n1 [Dasatinib] (partner 0.075 µM)
In short: as §1

[3] = compound: Cc1ccc(-n2nc(C(C)(C)C)cc2NC(=O)Nc2ccc(OCCN3CCOCC3)c3ccccc23)cc1 [Doramapimod] + COc1cccc2cc(-c3nc([C@H]4CC[C@H](C(=O)O)CC4)n4ncnc(N)c34)[nH]c12 [OSI-027] (partner 0.5 µM)
In short: as §1

[4] = compound: Cc1ccc(-n2nc(C(C)(C)C)cc2NC(=O)Nc2ccc(OCCN3CCOCC3)c3ccccc23)cc1 [Doramapimod] + NC(=O)Nc1cc(-c2cccc(F)c2)sc1C(=O)N[C@H]1CCCNC1 [AZD7762] (partner 0.2 µM)
In short: as §1

Row | Cell Line | relative viability ([1]; first compound 0.2 µM) | relative viability ([1]; first compound 0.6325 µM) | relative viability ([1]; first compound 2 µM) | relative viability ([1]; first compound 6.325 µM) | relative viability ([1]; first compound 20 µM) | relative viability ([2]; first compound 0.2 µM) | relative viability ([2]; first compound 0.6325 µM) | relative viability ([2]; first compound 2 µM) | relative viability ([2]; first compound 6.325 µM) | relative viability ([2]; first compound 20 µM) | relative viability ([3]; first compound 0.02 µM) | relative viability ([3]; first compound 0.06325 µM) | relative viability ([3]; first compound 0.2 µM) | relative viability ([3]; first compound 0.6325 µM) | relative viability ([3]; first compound 2 µM) | relative viability ([4]; first compound 0.02 µM) | relative viability ([4]; first compound 0.06325 µM) | relative viability ([4]; first compound 0.2 µM) | relative viability ([4]; first compound 0.6325 µM) | relative viability ([4]; first compound 2 µM)
1 | NCI-H522 | 1.16 | 1.14 | 0.893 | 1.18 | 1.31 | 0.875 | 0.922 | 0.847 | 0.86 | 0.884 | 0.667 | 0.705 | 0.767 | 0.68 | 0.656 | 0.879 | 0.744 | 0.708 | 0.736 | 0.9
2 | NCI-H647 | 0.561 | 0.373 | 0.371 | 0.206 | 0.0359 | 0.271 | 0.175 | 0.192 | 0.115 | 0.0437 | 0.702 | 0.546 | 0.706 | 0.711 | 0.639 | 0.602 | 0.616 | 0.461 | 0.485 | 0.454
3 | NCI-H650 | 0.373 | 0.361 | 0.323 | 0.361 | 0.426 | 0.461 | 0.498 | 0.439 | 0.438 | 0.44 | 0.544 | 0.626 | 0.61 | 0.608 | 0.52 | 0.88 | 1.11 | 0.941 | 1.16 | 1.02
4 | NCI-H727 | 0.671 | 0.784 | 0.644 | 0.63 | 0.625 | 0.295 | 0.423 | 0.328 | 0.385 | 0.389 | 0.497 | 0.556 | 0.688 | 0.472 | 0.57 | 0.605 | 0.576 | 0.642 | 0.487 | 0.528
5 | NCI-H838 | 0.278 | 0.202 | 0.209 | 0.225 | 0.204 | 0.32 | 0.234 | 0.291 | 0.319 | 0.328 | 0.383 | 0.364 | 0.376 | 0.369 | 0.326 | 0.869 | 0.962 | 0.958 | 0.902 | 0.92
6 | NCI-H1355 | 0.445 | 0.395 | 0.386 | 0.405 | 0.424 | 0.774 | 0.719 | 0.714 | 0.695 | 0.594 | 0.412 | 0.409 | 0.381 | 0.361 | 0.341 | 0.663 | 0.82 | 0.853 | 0.767 | 0.743
7 | NCI-H1395 | 0.681 | 0.524 | 0.634 | 0.608 | 0.61 | 0.408 | 0.42 | 0.385 | 0.44 | 0.466 | 0.617 | 0.728 | 0.702 | 0.826 | 0.523 | 0.392 | 0.39 | 0.355 | 0.443 | 0.349
8 | NCI-H1437 | 0.409 | 0.359 | 0.317 | 0.291 | 0.285 | 0.542 | 0.411 | 0.286 | 0.501 | 0.718 | 0.953 | 0.883 | 0.852 | 0.938 | 0.866 | 1.13 | 1.16 | 1.23 | 1.05 | 1.08

Source: the supplement of paper PMC10307832
